According to patent publication US20090233943A9, “NEW COMPOUNDS 835” (priority 2007, published 2009):
Where a name gives a salt, the structure may show the parent alone.

molecular target: T1, human β-Secretase (soluble part, AA 1-AA 460, sBACE-Fc) (Homo sapiens, UniProt P56817); test: TR-FRET assay (β-secretase enzyme); format: biochemical
T1 construct: The soluble part of the human β-Secretase (AA 1-AA 460) was cloned; made in house
Protocol: The enzyme used in the IGEN Cleavage-, Fluorescent-, TR-FRET- and BiaCore assays is described as follows:
The soluble part of the human β-Secretase (AA 1-AA 460) was cloned into the ASP2-Fc10-1-IRES-GFP-neoK mammalian expression vector. The gene was fused to the Fc domain of IgG1 (affinity tag) and stably cloned into SEEK 293 cells. Purified sBACE-Fc is stored in Tris buffer, pH 9.2 and has a purity of 95%.
Enzyme was diluted to 6 μg/mL and the substrate (Europium)[…](Qsy7) to 200 nM in reaction buffer (NaAcetate, chaps, triton x-100, EDTA pH 4.5). Compounds were diluted to the desired concentration in dimethyl sulfoxide (final dimethyl sulfoxide concentration in assay is 5%). […] Enzyme (9 μL) and 1 μL of compound in dimethyl sulfoxide was added to the plate, mixed and pre-incubated for 10 min. Substrate (10 μL) was added and the reaction proceeded in the dark for 15 min at RT. The reaction was stopped with the addition of 7 μL NaAcetate, pH 9. The fluorescence of the product was measured on a Victor II plate reader with an excitation wavelength of 340 nm and an emission wavelength of 615 nm. […] The dimethyl sulfoxide control defined the 100% activity level and 0% activity was defined by exclusion of the enzyme (using reaction buffer instead).

T1 sequence (P56817 22-460): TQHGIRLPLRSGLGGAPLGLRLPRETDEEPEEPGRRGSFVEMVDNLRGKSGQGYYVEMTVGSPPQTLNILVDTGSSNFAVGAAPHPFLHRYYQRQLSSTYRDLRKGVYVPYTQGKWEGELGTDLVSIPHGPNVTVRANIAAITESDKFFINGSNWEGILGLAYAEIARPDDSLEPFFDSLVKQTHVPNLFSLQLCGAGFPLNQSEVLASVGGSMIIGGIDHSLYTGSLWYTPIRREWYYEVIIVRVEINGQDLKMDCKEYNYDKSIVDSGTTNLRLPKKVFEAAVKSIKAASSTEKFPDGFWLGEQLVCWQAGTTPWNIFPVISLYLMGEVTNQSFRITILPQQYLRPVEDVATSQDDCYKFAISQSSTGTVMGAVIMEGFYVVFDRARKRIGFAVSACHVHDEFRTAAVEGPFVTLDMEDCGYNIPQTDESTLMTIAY

Row | Structure (SMILES) | IC50 [nM]
1 | CN1C(=O)C(c2ccc(S(F)(F)(F)(F)F)cc2)(c2ccc(F)c(-c3cncnc3)c2)N=C1N (centres unmarked) [Example 22, 2-Amino-5-(4-fluoro-3-pyrimidin-5-ylphenyl)-3-methyl-5-[4-(pentafluoro-λ^6-sulfanyl)phenyl]-3,5-dihydro-4H-imidazol-4-one] | 49
2 | CN1C(=O)C(c2ccc(S(F)(F)(F)(F)F)cc2)(c2ccc(F)c(-c3cncc(F)c3)c2)N=C1N (centres unmarked) [Example 27, 2-Amino-5-[4-fluoro-3-(5-fluoropyridin-3-yl)phenyl]-3-methyl-5-[4-(pentafluoro-λ^6-sulfanyl)phenyl]-3,5-dihydro-4H-imidazol-4-one 0.25 acetate] | 81
3 | CN1C(=O)C(c2ccc(S(F)(F)(F)(F)F)cc2)(c2ccc(F)c(-c3cnccn3)c2)N=C1N (centres unmarked) [Example 30, 2-amino-5-(4-fluoro-3-pyrazin-2-ylphenyl)-3-methyl-5-[4-(pentafluoro-λ^6-sulfanyl)phenyl]-3,5-dihydro-4H-imidazol-4-one 0.75 acetate] | 124
4 | CN1C(=O)C(c2cccc(S(F)(F)(F)(F)F)c2)(c2ccc(F)c(-c3cccnc3)c2)N=C1N (centres unmarked) [Example 50, 2-Amino-5-(4-fluoro-3-pyridin-3-ylphenyl)-3-methyl-5-[3-(pentafluoro-λ^6-sulfanyl)phenyl]-3,5-dihydro-4H-imidazol-4-one] | 317
5 | CN1C(=O)C(c2ccc(S(F)(F)(F)(F)F)cc2)(c2ccc(F)c(-c3cnccc3C#N)c2)N=C1N (centres unmarked) [Example 29, 3-(5-{2-amino-1-methyl-5-oxo-4-[4-(pentafluoro-λ^6-sulfanyl)phenyl]-4,5-dihydro-1H-imidazol-4-yl}-2-fluorophenyl)isonicotinonitrile 0.25 acetate] | 81
6 | CN1C(=O)C(c2ccc(S(F)(F)(F)(F)F)cc2)(c2cccc(-c3cncc(F)c3)c2)N=C1N (centres unmarked) [Example 35, 2-amino-5-[3-(5-fluoropyridin-3-yl)phenyl]-3-methyl-5-[4-(pentafluoro-λ^6 sulfanyl)phenyl]-3,5-dihydro-4H-imidazol-4-one] | 68
7 | CN1C(=O)C(c2ccc(S(F)(F)(F)(F)F)cc2)(c2cccc(-c3cncc(C#N)c3)c2)N=C1N (centres unmarked) [Example 45, 5-(3-{2-amino-1-methyl-5-oxo-4-[4-(pentafluoro-λ^6-sulfanyl)phenyl]-4,5-dihydro-1H-imidazol-4-yl}phenyl)pyridine-3-carbonitrile] | 59
8 | COc1cccc(-c2cccc(C3(c4ccc(S(F)(F)(F)(F)F)cc4)N=C(N)N(C)C3=O)c2)c1F (single isomer, unassigned) [37 isomer 2] | 2630
9 | COc1cncc(-c2cc(C3(c4ccc(S(F)(F)(F)(F)F)cc4)N=C(N)N(C)C3=O)ccc2F)c1 (centres unmarked) [Example 25, 2-Amino-5-[4-fluoro-3-(5-methoxypyridin-3-yl)phenyl]-3-methyl-5-[4-(pentafluoro-λ^6-sulfanyl)phenyl]-3,5-dihydro-4H-imidazol-4-one] | 30
10 | COc1cncc(-c2cc(C3(c4ccc(S(F)(F)(F)(F)F)cc4)N=C(N)N(C)C3=O)ccc2F)c1 (single isomer, unassigned) [26 isomer 2] | 465
11 | CN1C(=O)C(c2ccc(S(F)(F)(F)(F)F)cc2)(c2cccc(-c3cn(C)cn3)c2)N=C1N (centres unmarked) [Example 44, 2-amino-3-methyl-5-[3-(1-methyl-1H-imidazol-4-yl)phenyl]-5-[4-(pentafluoro-λ^6-sulfanyl)phenyl]-3,5-dihydro-4H-imidazol-4-one] | 643
12 | CN1C(=O)C(c2ccc(S(F)(F)(F)(F)F)cc2)(c2cccc(-c3cccnc3F)c2)N=C1N (centres unmarked) [Example 31, 2-amino-5-[3-(2-fluoropyridin-3-yl)phenyl]-3-methyl-5-[4-(pentafluoro-λ^6-sulfanyl)phenyl]-3,5-dihydro-4H-imidazol-4-one] | 83
13 | CN1C(=O)C(c2cccc(S(F)(F)(F)(F)F)c2)(c2ccc(F)c(-c3cncnc3)c2)N=C1N (centres unmarked) [Example 48, 2-Amino-5-(4-fluoro-3-pyrimidin-5-ylphenyl)-3-methyl-5-[3-(pentafluoro-λ^6-sulfanyl)phenyl]-3,5-dihydro-4H-imidazol-4-one 0.25 acetate] | 487
14 | CN1C(=O)C(c2cccc(S(F)(F)(F)(F)F)c2)(c2ccc(F)c(-c3cncc(F)c3)c2)N=C1N (centres unmarked) [Example 52, 2-Amino-5-[4-fluoro-3-(5-fluoropyridin-3-yl)phenyl]-3-methyl-5-[3-(pentafluoro-λ^6-sulfanyl)phenyl]-3,5-dihydro-4H-imidazol-4-one] | 1190
15 | CN1C(=O)C(c2ccc(S(F)(F)(F)(F)F)cc2)(c2cccc(-c3cnccn3)c2)N=C1N (centres unmarked) [Example 36, 2-amino-3-methyl-5-[4-(pentafluoro-λ^6-sulfanyl)phenyl]-5-(3-pyrazin-2-ylphenyl)-3,5-dihydro-4H-imidazol-4-one] | 56
16 | CN1C(=O)C(c2ccc(S(F)(F)(F)(F)F)cc2)(c2ccc(F)c(-c3cncc(C#N)c3)c2)N=C1N (centres unmarked) [Example 23, 5-(5-{2-Amino-1-methyl-5-oxo-4-[4-(pentafluoro-A-sulfanyl)phenyl]-4,5-dihydro-1H-imidazol-4-yl}-2-fluorophenyl)nicotinonitrile 0.25 acetate] | 101
17 | CN1C(=O)C(c2ccc(S(F)(F)(F)(F)F)cc2)(c2cccc(-c3cncnc3)c2)N=C1N (centres unmarked) [Example 32, 2-amino-3-methyl-5-[4-(pentafluoro-λ^6-sulfanyl)phenyl]-5-(3-pyrimidin-5-ylphenyl)-3,5-dihydro-4H-imidazol-4-one] | 55
18 | CN1C(=O)C(c2ccc(S(F)(F)(F)(F)F)cc2)(c2cccc(-c3cccnc3)c2)N=C1N (centres unmarked) [Example 33, 2-amino-3-methyl-5-[4-(pentafluoro-λ^6-sulfanyl)phenyl]-5-(3-pyridin-3-ylphenyl)-3,5-dihydro-4H-imidazol-4-one] | 52
19 | COc1cccc(-c2cc(C3(c4ccc(N=S(C)(C)=O)cc4)N=C(N)N(C)C3=O)ccc2F)c1 (centres unmarked) [Example 5, 2-Amino-5-(4-{[dimethyl(oxido)-λ^4-sulfanylidene]amino}phenyl)-5-(6-fluoro-3′-methoxybiphenyl-3-yl)-3-methyl-3,5-dihydro-4H-imidazol-4-one hydrochloride] | 756
20 | CN1C(=O)C(c2ccc(S(F)(F)(F)(F)F)cc2)(c2cccc(-c3cscn3)c2)N=C1N (centres unmarked) [Example 43, 2-amino-3-methyl-5-[4-(pentafluoro-λ^6-sulfanyl)phenyl]-5-[3-(1,3-thiazol-4-yl)phenyl]-3,5-dihydro-4H-imidazol-4-one] | 673
21 | CN1C(=O)C(c2ccc(S(F)(F)(F)(F)F)cc2)(c2cccc(-c3cnccc3C#N)c2)N=C1N (centres unmarked) [Example 34, 3-(3-{2-amino-1-methyl-5-oxo-4-[4-(pentafluoro-λ^6-sulfanyl)phenyl]-4,5-dihydro-1H-imidazol-4-yl}phenyl)pyridine-4-carbonitrile] | 467
22 | COc1ccc(F)c(-c2cccc(C3(c4ccc(S(F)(F)(F)(F)F)cc4)N=C(N)N(C)C3=O)c2)c1F (centres unmarked) [Example 47, 2-amino-5-(2′,6′-difluoro-3′-methoxybiphenyl-3-yl)-3-methyl-5-[4-(pentafluoro-λ^6-sulfanyl)phenyl]-3,5-dihydro-4H-imidazol-4-one] | 38
23 | CN1C(=O)C(c2ccc(S(F)(F)(F)(F)F)cc2)(c2cccc(-c3cc(C#N)ccn3)c2)N=C1N (centres unmarked) [Example 42, 2-(3-{2-amino-1-methyl-5-oxo-4-[4-(pentafluoro-λ^6-sulfanyl)phenyl]-4,5-dihydro-1H-imidazol-4-yl}phenyl)pyridine-4-carbonitrile] | 405
24 | CN1C(=O)C(c2ccc(S(F)(F)(F)(F)F)cc2)(c2cccc(-c3cccc(Cl)c3F)c2)N=C1N (centres unmarked) [Example 46, 2-amino-5-(3′-chloro-2′-fluorobiphenyl-3-yl)-3-methyl-5-[4-(pentafluoro-λ^6-sulfanyl)phenyl]-3,5-dihydro-4H-imidazol-4-one] | 694
25 | COc1cccc(-c2cccc(C3(c4ccc(S(F)(F)(F)(F)F)cc4)N=C(N)N(C)C3=O)c2)c1F (single isomer, unassigned) [37 isomer 1] | 49
26 | CN1C(=O)C(c2ccc(S(F)(F)(F)(F)F)cc2)(c2cccc(-c3cc(C#N)ccc3F)c2)N=C1N (centres unmarked) [Example 39, 2-amino-5-(2′-fluoro-5′-carbonitrilebiphenyl-3-yl)-3-methyl-5-[4-(pentafluoro-λ^6-sulfanyl)phenyl]-3,5-dihydro-4H-imidazol-4-one] | 356
27 | CN1C(=O)C(c2cccc(S(F)(F)(F)(F)F)c2)(c2ccc(F)c(-c3cncc(C#N)c3)c2)N=C1N (centres unmarked) [Example 49, 5-(5-{2-Amino-1-methyl-5-oxo-4-[3-(pentafluoro-λ^6-sulfanyl)phenyl]-4,5-dihydro-1H-imidazol-4-yl}-2-fluorophenyl)nicotinonitrile 0.25 acetate] | 1140
28 | COc1cccc(-c2cccc(C3(c4ccc(S(F)(F)(F)(F)F)cc4)N=C(N)N(C)C3=O)c2)c1 (centres unmarked) [Example 40, 2-amino-5-(3′-methoxybiphenyl-3-yl)-3-methyl-5-[4-(pentafluoro-λ^6-sulfanyl)phenyl]-3,5-dihydro-4H-imidazol-4-one] | 81
29 | CN1C(=O)C(c2ccc(S(F)(F)(F)(F)F)cc2)(c2cccc(-c3cccc(C#N)c3)c2)N=C1N (centres unmarked) [Example 41, 3′-{2-amino-1-methyl-5-oxo-4-[4-(pentafluoro-λ^6-sulfanyl)phenyl]-4,5-dihydro-1H-imidazol-4-yl}biphenyl-3-carbonitrile] | 143
